Measurements as given in patent US20240132484A1, “BROAD SPECTRUM ANTIVIRAL COMPOUNDS TARGETING THE SKI COMPLEX” (priority 2020, published 2024).

System: Influenza virus
Experiment: organism not typed
Assay type: cell-based, influenza A virus
Settings: for Avg PFU/ml: average of first and second experiment; for Influenza virus titer, 10 μM / Influenza virus titer, 50 μM: upper part of table (FIG. 5 data); for Influenza virus titer, 10 μM / Influenza virus titer, 50 μM / Flu titer (pfu/ml): plaque assay; for antiviral activity against IAV infection: screening; for 10 μM treatment, Average / 50 μM treatment Average: average of replicates
[1] = 50 μM compound, replicate 1, DMSO (0.5%) control run per batch

Row | Structure (SMILES) | Flu titer (pfu/ml) (1 μM compound, A549 cells) | Flu titer (pfu/ml) (10 μM compound, A549 cells) | Flu titer (pfu/ml) (50 μM compound, A549 cells) | also measured
1 | COc1ccc(CNCCCSC)c(OCC(O)CN2CCN(C)CC2)c1 (centres unmarked) [Compound 18-16] |  |  |  | first experiment (10 μM screen): 210000 PFU/ml; second experiment (10 μM screen): 18000 PFU/ml; Avg PFU/ml (10 μM screen): 114000 PFU/ml; Influenza virus titer, 10 μM (10 μM): 21000 PFU/virus/ml; first experiment PFU/ml (50 μM screen): 30000 PFU/ml; second experiment PFU/ml (50 μM screen): 2300 PFU/ml; Avg PFU/ml (50 μM screen): 16150 PFU/ml; Influenza virus titer, 50 μM: 90000 PFU/virus/ml
2 | COc1ccc(CNCCc2ccccc2F)c(OCC(O)CN2CCN(C)CC2)c1 (centres unmarked) [Compound 18-lead, 1-[2-({[2-(2-fluorophenyl)ethyl]amino}methyl)-5-methoxyphenoxy]-3-(4-methyl-1-piperazinyl)-2-propanol] |  |  |  | Influenza virus titer, 10 μM (10 μM): 2000 PFU/virus/ml; Influenza virus titer, 50 μM: 1400 PFU/virus/ml
3 | CCc1ccc(OC(C)c2nnc(SCC(=O)Nc3nc(-c4ccccc4)c(C)s3)n2C)cc1 (centres unmarked) [Compound 7493781, 2-({5-[1-(4-ethylphenoxy)ethyl]-4-methyl-4H-1,2,4-triazol-3-yl}thio)-N-(5-methyl-4-phenyl-1,3-thiazol-2-yl)acetamide] | 75000 pfu/ml | 98000 pfu/ml | 53000 pfu/ml | 
4 | COc1ccc(NC(=O)c2ccccc2OCC(=O)NC2CCCCC2)c([N+](=O)[O-])c1 [Compound 7900806, 2-[2-(cyclohexylamino)-2-oxoethoxy]-N-(4-methoxy-2-nitrophenyl)benzamide] | 77000 pfu/ml | 60000 pfu/ml | 54000 pfu/ml | 
5 | CCCCC(=O)Nc1cccc(NC(=O)COc2ccc(C3CCCCC3)cc2)c1 [Compound 7973169, N-(3-{[2-(4-cyclohexylphenoxy)acetyl]amino}phenyl)pentanamide] | 101000 pfu/ml | 66000 pfu/ml | 110000 pfu/ml | 
6 | CCN1CCN(CC(O)COc2cccc(CN(C)Cc3ccccn3)c2)CC1 (centres unmarked) [Compound 10306628, 1-(4-ethyl-1-piperazinyl)-3-(3-{[methyl(2-pyridinylmethyl)amino]methyl}phenoxy)-2-propanol] | 70000 pfu/ml | 85000 pfu/ml | 42000 pfu/ml | 
7 | CC#CC(=O)NCc1nc(-c2ccccc2NC(=O)CCOc2ccccc2)oc1C [Compound 17295424, N-[(5-methyl-2-{2-[(3-phenoxypropanoyl)amino]phenyl}-1,3-oxazol-4-yl)methyl]-2-butynamide] | 44000 pfu/ml | 68000 pfu/ml | 64000 pfu/ml | 
8 | COc1cc(CNCCC2CCN(C)CC2)ccc1OCC(O)CN(C)C1CCCCC1 (centres unmarked) [Compound 28236358, 1-[cyclohexyl(methyl)amino]-3-[2-methoxy-4-({[2-(1-methyl-4-piperidinyl)ethyl]amino}methyl)phenoxy]-2-propanol] | 70000 pfu/ml | 70000 pfu/ml | 39000 pfu/ml | 
9 | OC(COc1ccccc1CNCc1cn2c(n1)SCC2)CN1CCSCC1 (centres unmarked) [Compound 32841411, 1-(2-{[(2,3-dihydroimidazo[2,1-b][1,3]thiazol-6-ylmethyl)amino]methyl}phenoxy)-3-(4-thiomorpholinyl)-2-propanol] | 170000 pfu/ml | 80000 pfu/ml | 31000 pfu/ml | 
10 | COc1ccc(OC)c(Cc2nnc(CCC(=O)NC3CC(C)(C)CC(C)(C)C3)o2)c1 [Compound 35434810, 3-[5-(2,5-dimethoxybenzyl)-1,3,4-oxadiazol-2-yl]-N-(3,3,5,5-tetramethylcyclohexyl)propanamide] | 80000 pfu/ml | 80000 pfu/ml | 130000 pfu/ml | 
11 | Cc1ccc(-c2cc3c(c(OCC4CCCCO4)c2)OCCN(C(=O)C2CC2)C3)s1 (centres unmarked) [Compound 43261887, 4-(cyclopropylcarbonyl)-7-(5-methyl-2-thienyl)-9-(tetrahydro-2H-pyran-2-ylmethoxy)-2,3,4,5-tetrahydro-1,4-benzoxazepine] | 60000 pfu/ml | 170000 pfu/ml | 30000 pfu/ml | 
12 | COc1ccccc1Cn1cc(C(=O)NCCC2=CCCCC2)c(=O)c(C(=O)N(CCO)C(C)C)c1 [Compound 55345532, N′-[2-(1-cyclohexen-1-yl)ethyl]-N-(2-hydroxyethyl)-N-isopropyl-1-(2-methoxybenzyl)-4-oxo-1,4-dihydro-3,5-pyridinedicarboxamide] | 55000 pfu/ml | 70000 pfu/ml | 34000 pfu/ml | 
13 | OCCN(Cc1nc(Cc2cccc(C(F)(F)F)c2)no1)CC12CC3CC(CC(C3)C1)C2 [Compound 61121342, 2-[(1-adamantylmethyl)({3-[3-(trifluoromethyl)benzyl]-1,2,4-oxadiazol-5-yl}methyl)amino]ethanol] | 9000 pfu/ml | 130000 pfu/ml | 50000 pfu/ml | 
14 | COC(=O)C1CCN(CC(O)COc2cccc(CN(C)Cc3cc(C)no3)c2)CC1 (centres unmarked) [Compound 62396835, methyl 1-{2-hydroxy-3-[3-({methyl[(3-methyl-5-isoxazolyl)methyl]amino}methyl)phenoxy]propyl}-4-piperidinecarboxylate] | 66000 pfu/ml | 71000 pfu/ml | 30000 pfu/ml | 
15 | O=C(CN1CC(c2ccccc2)CC1=O)NCc1nnc(SCC2CCCCC2)n1-c1ccc(F)cc1 (centres unmarked) [Compound 68125364, N-{[5-[(cyclohexylmethyl)thio]-4-(4-fluorophenyl)-4H-1,2,4-triazol-3-yl]methyl}-2-(2-oxo-4-phenyl-1-pyrrolidinyl)acetamide] | 72000 pfu/ml | 62000 pfu/ml | 79000 pfu/ml | 
16 | CN(CC(O)COc1ccccc1CNCCN1CCCC1)C1CCCCC1 (centres unmarked) [Compound 74597070, 1-[cyclohexyl(methyl)amino]-3-[2-({[2-(1-pyrrolidinyl)ethyl]amino}methyl)phenoxy]-2-propanol] | 70000 pfu/ml | 55000 pfu/ml | 24000 pfu/ml | 
17 | CCN1CCN(CC(O)COc2cccc(CN(C)Cc3cc(C)no3)c2)CC1 (centres unmarked) [Compound 77921510, 1-(4-ethyl-1-piperazinyl)-3-[3-({methyl[(3-methyl-5-isoxazolyl)methyl]amino}methyl)phenoxy]-2-propanol] | 72000 pfu/ml | 90000 pfu/ml | 26000 pfu/ml | 
18 | O=C(CCCc1ccccc1)Nc1cccc(N2CCC(NCCCn3nnc4ccccc43)CC2)c1 [Compound 84256405, N-[3-(4-{[3-(1H-1,2,3-benzotriazol-1-yl)propyl]amino}-1-piperidinyl)phenyl]-4-phenylbutanamide] | 50000 pfu/ml | 140000 pfu/ml | 210000 pfu/ml | 
19 | CCN(CC)CCNCc1ccccc1OCC(O)CN1CCSCC1 (centres unmarked) [Compound 86006211, 1-[2-({[2-(diethylamino)ethyl]amino}methyl)phenoxy]-3-(4-thiomorpholinyl)-2-propanol] | 70000 pfu/ml | 60000 pfu/ml | 12000 pfu/ml | 
20 | COc1ccc(CNCCc2ccccc2F)c(OCC(O)CN2CCN(C)CC2)c1 (centres unmarked) [Compound 96509034, 1-[2-({[2-(2-fluorophenyl)ethyl]amino}methyl)-5-methoxyphenoxy]-3-(4-methyl-1-piperazinyl)-2-propanol] | 10000 pfu/ml | 4000 pfu/ml | 5000 pfu/ml | 
21 | COc1ccc(CNCCc2ccccc2C)c(OCC(O)CN2CCN(C)CC2)c1 (centres unmarked) [UMB40] |  |  |  | antiviral activity against IAV infection (A549 cells): showed a degree of antiviral activity
22 | O=C(NC1CCCCCC1)c1cn[nH]c1-c1ccc2c(c1)OCCO2 [UMB98] |  |  |  | 10 μM treatment, Average: 0; 10 μM treatment (replicate 2): 0; 50 μM treatment Average (50 μM compound): 0; 50 μM treatment [1]: 0; 50 μM treatment (50 μM compound, replicate 2): 0
23 | CC1=C(C(=O)OC2CCCCCCC2)C(c2ccc3c(c2)OCO3)NC(=O)N1 (centres unmarked) [UMB115] |  |  |  | 10 μM treatment, Average: 3500; 10 μM treatment (replicate 2): 5000; 50 μM treatment Average (50 μM compound): 0; 50 μM treatment [1]: 0; 50 μM treatment (50 μM compound, replicate 2): 0
24 | COc1ccc(CNCCc2ccccc2F)c(OCC(O)CN2CCN(C)CC2)c1 (centres unmarked) [UMBCADD-0018, 1-[2-({[2-(2-fluorophenyl)ethyl]amino}methyl)-5-methoxyphenoxy]-3-(4-methyl-1-piperazinyl)-2-propanol] |  |  |  | inhibition of Influenza virus replication (10 μM, A549 cells): over 20 fold; antiviral activity against IAV infection (A549 cells): effective at 50 μM, 10 μM and 1 μM
